{"source": "patent US20190262453A1", "about": "“DESIGN AND COMPOSITION OF CELL-STABILIZED PHARMACEUTICAL FORMULATIONS” (THE REGENTS OF THE UNIVERSITY OF MICHIGAN, priority 2016, published 2019)", "key": {"[1]": {"test": "Biochemical analysis of CFZ in tissues", "type": "in vivo", "settings": "clodronate-treated mice versus PBS", "method": "Mice were fed CFZ or a control diet continuously for a four week period. Following two weeks of feeding, liposome treatment began for two weeks. After completing four weeks of feeding and two weeks of liposome treatment, the mice were sacrificed and tissues were collected.\nThe concentration of CFZ in organs was determined spectrophotometrically. After four weeks of CFZ- or vehicle-diet treatment, mice were euthanized via CO2 asphyxiation, and blood and organs were collected. Tissue (20-30 mg) was homogenized in 500 μL of RIPA buffer, and 350 μL of homogenate was removed drug was extracted with three passes of 1 mL of xylenes. The drug was then extracted from the xylene with three 1 mL passes of 9M sulfuric acid. The concentration of CFZ present in the tissue was then determined using a plate reader at wavelength 450 nm."}, "[2]": {"system": "RAW264.7 cells", "test": "Cell viability (XTT assay)", "type": "cell-based", "method": "Cell Viability. Viability of RAW264.7 cells were performed using Cell Proliferation Kit II (XTT) (Roche Applied Science, Mannheim, Germany, Cat. No. 11465015001) using the manufacturer's instructions. […] Post 24 hours exposure to CFZ, the cells were incubated with the yellow XTT solution (final concentration 0.3 mg/ml) for 4 h. […] An increase in number of living cells directly correlates to the amount of orange formazan formed, as monitored by the solution absorbance at 500 nm (Abs500). The following formula was used to determine viability of drug and inhibitor treated cells using untreated cells (blank) as a control—Cell Viability=(Abs500, treated—Abs700,treated)/(Abs500, blank—Abs700,blank)."}, "[3]": {"test": "Mouse body weight and temperature during macrophage depletion and CFZ feeding", "type": "in vivo", "settings": "mice, final measurement; four weeks diet, two weeks liposomes", "method": "Mice (4 week old, male C57B16) were purchased from the Jackson Laboratory (Bar Harbor, Me.) and acclimatized for 1 week in a specific-pathogen-free animal facility. Clofazimine (CFZ) (C8895; Sigma, St. Louis, Mo.) was dissolved in sesame oil (Shirakiku, Japan) to achieve a concentration of 3 mg/ml, which was mixed with Powdered Lab Diet 5001 (PMI International, Inc., St. Louis, Mo.) to produce a 0.03% drug to powdered feed mix, and orally administered ad libitum for 4 weeks. A corresponding amount of sesame oil was mixed with chow for vehicle treatment (control). Mice were euthanized via carbon dioxide asphyxiation and exsanguination. Animal care was provided by the University of Michigan's Unit for Laboratory Animal Medicine (ULAM).\nIn order to deplete tissue macrophages, mice were treated with liposomes containing either 7 mg/mL clodronate or phosphate-buffered saline (PBS) (FormuMax Scientific Inc., Sunnyvale, Calif.) for up to six weeks. Liposomes were injected IP to eliminate macrophages of the liver, spleen, and peritoneal cavity. Mice were initially treated with 200 μL of liposomes, followed by 100 μL injections twice per week to ensure continual depletion of macrophages. […]\nDuring the course of the experiment, the body weight and temperature of the mice were measured daily to track the impact of the loss of drug-sequestering cells on the general health of the mouse. […]"}, "[4]": {"settings": "cited from earlier work"}, "[5]": {"system": "RAW264.7 cells", "method": "Drug Uptake. Measurement of CFZ uptake in RAW264.7 cells was performed using a modified absorbance spectroscopy method using 9 M H2SO4 (pH<<0.1) to digest the entire cell population and extract CFZ from the cells. Cells at a very high seeding density of 50,000 cells/well, grown in a 96 well tissue culture plate in 280 μl/well of DMEM +10% FBS +1% P/S (growth media), were pre-incubated with varying concentrations of BafA1 (0-4 nM) and NPPB (0-200 μM) for 4 hours before adding CFZ dissolved in DMSO such that final concentrations of CFZ were in the range of 0-8 μM. Post 4 and 24 hours exposure to CFZ, growth media was aspirated out and the cells were washed with PBS twice before adding 100 μl/well of 9 M H2SO4 and incubated at room temperature for 30 minutes before spectrophotometric quantification using a Synergy 2 plate reader (BioTek, Winooski, Vt.) at 540 nm (Abs540) and 750 nm (Abs750) (for background). Standards were prepared on the same plate by adding 100 μl/well pre-determined standards of CFZ. Total uptake was reported as total picomoles of intracellular drug as measured and calculated using the standard curve.\nCell Viability Measurement: Comparing Wet Lab Experimental Study with Simulation Study. In order to compare wet lab experimental cell viability determination with that of model simulation, the rate at which drug accumulation occurred in the experimental study was calculated. […] Then, cell viability was calculated using the following equation: […]\nIn vitro analysis (CFZ accumulation). […] Furthermore, the following comparisons are reported as a percentage (%) of CFZ accumulation measured in uninhibited cells under the various tested CFZ concentrations and 8 μM CFZ concentration, in the wet lab experimental and simulation studies, respectively."}}, "note": "Where two headings read alike, the source gives them in different places."}
{"smiles": "CC(C)N=c1cc2n(-c3ccc(Cl)cc3)c3ccccc3nc-2cc1Nc1ccc(Cl)cc1", "note": "[CFZ, 3-(p-chloroanilino)-10-(p-chlorophenyl)-2, 10-dihydro-2-isopropyliminophenazine]", "values": [{"measurement": "reduction in the total amount of drug found in the liver", "setting": "[1]", "value": "75±7", "unit": "%"}, {"measurement": "reduction in the total amount of drug found in the spleen", "setting": "[1]", "value": "88±7", "unit": "%"}, {"measurement": "difference in total amount of drug found in the kidney", "setting": "[1]; p=0.77", "value": "no difference"}, {"measurement": "cell viability", "setting": "[2]; BafA1=4 nM and CFZ=10 μM, n=6", "value": "76±13", "unit": "%"}, {"measurement": "cell viability", "setting": "[2]; BafA1=6 nM, all concentrations of CFZ", "value": "48-85%"}, {"measurement": "cell viability", "setting": "[2]; BafA1=8 nM, all concentrations of CFZ", "value": "33-77%"}, {"measurement": "cell viability", "setting": "[2]; exposed to NPPB (all tested concentrations) prior to varying concentrations of CFZ", "value": "> 92", "unit": "%"}, {"measurement": "effect on cell viability", "setting": "[2]; incubation of the substance alone, RAW264.7, XTT", "value": "no significant effect"}, {"measurement": "cell viability", "setting": "[2]; up to 4 nM BafA1 prior to up to 8 μM CFZ", "value": "> 91", "unit": "%"}, {"measurement": "Average Body Temperature (n = 3-4)", "setting": "[3]", "value": "34.3 ± 0.3", "unit": "°C"}, {"measurement": "Average Body Weight (n = 3-4)", "setting": "[3]", "value": "25.7 ± 0.8", "unit": "g"}, {"measurement": "pharmacologically-relevant concentrations measured in serum", "setting": "[4]", "value": "1 to 20", "unit": "μM"}, {"measurement": "CFZ accumulation relative to uninhibited cells", "setting": "[5]; 2 nM BafA1, initial CFZ=4 μM, 4 hours", "value": "80±13", "unit": "%"}, {"measurement": "CFZ accumulation relative to uninhibited cells", "setting": "[5]; 2 nM BafA1, initial CFZ=4 μM, 24 hours", "value": "67±12", "unit": "%"}, {"measurement": "CFZ accumulation relative to uninhibited cells", "setting": "[5]; 2 nM BafA1, initial CFZ=6 μM, 4 hours", "value": "75±11", "unit": "%"}, {"measurement": "CFZ accumulation relative to uninhibited cells", "setting": "[5]; 2 nM BafA1, initial CFZ=6 μM, 24 hours", "value": "71±19", "unit": "%"}, {"measurement": "CFZ accumulation relative to uninhibited cells", "setting": "[5]; 2 nM BafA1, initial CFZ=8 μM, 4 hours", "value": "63±9", "unit": "%"}, {"measurement": "CFZ accumulation relative to uninhibited cells", "setting": "[5]; 2 nM BafA1, initial CFZ=8 μM, 24 hours", "value": "67±12", "unit": "%"}, {"measurement": "CFZ accumulation relative to uninhibited cells", "setting": "[5]; BafA1=4 nM, initial CFZ=4 μM, 4 hours", "value": "29±4", "unit": "%"}, {"measurement": "CFZ accumulation relative to uninhibited cells", "setting": "[5]; BafA1=4 nM, initial CFZ=4 μM, 24 hours", "value": "42±6", "unit": "%"}, {"measurement": "CFZ accumulation relative to uninhibited cells", "setting": "[5]; BafA1=4 nM, initial CFZ=6 μM, 4 hours", "value": "47±9", "unit": "%"}, {"measurement": "CFZ accumulation relative to uninhibited cells", "setting": "[5]; BafA1=4 nM, initial CFZ=6 μM, 24 hours", "value": "38±9", "unit": "%"}, {"measurement": "CFZ accumulation relative to uninhibited cells", "setting": "[5]; BafA1=4 nM, initial CFZ=8 μM, 4 hours", "value": "43±8", "unit": "%"}, {"measurement": "CFZ accumulation relative to uninhibited cells", "setting": "[5]; BafA1=4 nM, initial CFZ=8 μM, 24 hours", "value": "26±4", "unit": "%"}, {"measurement": "CFZ accumulation relative to uninhibited cells", "setting": "[5]; NPPB=50 μM, CFZ=4 μM, 24 hours", "value": "73±10", "unit": "%"}, {"measurement": "CFZ accumulation relative to uninhibited cells", "setting": "[5]; NPPB=50 μM, CFZ=6 μM, 24 hours", "value": "73±17", "unit": "%"}, {"measurement": "CFZ accumulation relative to uninhibited cells", "setting": "[5]; NPPB=50 μM, CFZ=8 μM, 24 hours", "value": "72±10", "unit": "%"}, {"measurement": "CFZ accumulation relative to uninhibited cells", "setting": "[5]; NPPB=100 μM, CFZ=4 μM, 24 hours", "value": "46±5", "unit": "%"}, {"measurement": "CFZ accumulation relative to uninhibited cells", "setting": "[5]; NPPB=100 μM, CFZ=6 μM, 24 hours", "value": "41±12", "unit": "%"}, {"measurement": "CFZ accumulation relative to uninhibited cells", "setting": "[5]; NPPB=100 μM, CFZ=8 μM, 24 hours", "value": "41±7", "unit": "%"}, {"measurement": "CFZ accumulation relative to uninhibited cells", "setting": "[5]; NPPB=200 μM, CFZ=4 μM, 24 hours", "value": "30±7", "unit": "%"}, {"measurement": "CFZ accumulation relative to uninhibited cells", "setting": "[5]; NPPB=200 μM, CFZ=6 μM, 24 hours", "value": "32±12", "unit": "%"}, {"measurement": "CFZ accumulation relative to uninhibited cells", "setting": "[5]; NPPB=200 μM, CFZ=8 μM, 24 hours", "value": "37±7", "unit": "%"}, {"measurement": "rate of drug accumulation", "setting": "[5]; mouse, 8 µM", "value": "~0.01", "unit": "picomol/cell/day"}, {"measurement": "change in CFZ accumulation in inhibited relative to uninhibited cells", "setting": "[5]; pre-incubated with various concentrations of NPPB, CFZ for 4 hours at varying concentrations", "value": "no significant change"}]}
